Reference: patent US8137970B2, “Methods for inducing the differentiation of hematopoietic stem cells into megakaryocytes and platelets, and gene controlling the differentiation” (Ewha University-Industry Collaboration Foundation, priority 2008, dated 2012)

Experiments:
Type in all cases: cell-based, human
[1] = test system: umbilical cord blood-derived CD34+ hematopoietic stem cell; assay: Morphological change and polyploidization of CD34+ hematopoietic stem cells cocultured with OP9 stromal cells
Protocol: (§1) The OP9 stromal cell line was aliquoted into 6-well culture plate at a density of 1×10^5/well, and cultured for 24 hrs as a monolayer in a-MEM supplemented with 20% heat-inactivated FBS, 0.5% penicillin/streptomycin and 1.5 g/L sodium bicarbonate. When the OP9 stromal cell line was cultured as a monolayer, the media was replaced with StemSpan™ H3000 for CD34+ hematopoietic stem cell culture. Then, the CD34+ hematopoietic stem cells were aliquoted upper the op cells at a density of 3×10^5/well.
In order to confirm the distinct morphological change of the umbilical cord blood-derived CD34+ hematopoietic stem cell treated with the compound of Formula 1, the cells were treated with the compound of Formula 1 and the known hematopoietic stem cell differentiation inducers, CC100, CC200, IL-3, IL-6, TPO and SCF, so as to investigate morphological changes and polyploidization of the CD34+ hematopoietic stem cell.
The CD34+ hematopoietic stem cells cocultured with OP9 cells through Example 1 were treated with each of the materials. The cells were treated with each of the hematopoietic stem cell differentiation inducers at a following concentration; CC100 (rhFlt-3 ligand 100 ng/ml, SCF 100 ng/ml, IL-3 20 ng/ml, IL-6 20 ng/ml), CC200 (rhTPO 50 ng/ml, rhSCF 50 ng/ml, IL-3 10 ng/ml), Megacult-C (TPO 5 ng/ml, IL-3 1 ng/ml, IL-6 2 ng/ml), IL-3 of 10 ng/ml, IL-6 of 20 ng/ml, SCF of 50 ng/ml, and (R)-NALPCE of 45 μg/ml.
After 8 days, the cells were photographed by Mag. ×200 to examine the morphological changes (FIG. 1).
In addition, polyploidization of the cells was analyzed by FACS (flow cytometer). The cells were harvested and resuspended with 1×PBS containing 0.1% saponin. 10 mg/mL RNAse A and propidium iodide solution were added thereto. Thereafter, the cells were incubated at room temperature for 30 min. The cells were analyzed by FACS caliber flow cytometer and Cell quest software. Results are means±SD (n=3). Similar results were obtained in three independent experiments (FIG. 1).

[2] = test system: umbilical cord blood-derived CD34+ hematopoietic stem cells; assay: CD41 / CD61 megakaryocyte-specific marker expression by FACS in CD34+ hematopoietic stem cells cocultured with OP9; details: FIG. 2
Protocol: as §1
In order to confirm whether the differentiation of the umbilical cord blood-derived CD34+ hematopoietic stem cells into megakaryocytes and platelets was induced by treatment of the compound of Formula 1, the cells were treated with the compound of Formula 1 and the known hematopoietic stem cell differentiation inducers, CC200 and Megacult-C, singly or in a mixture. Then, expression of megakaryocyte-specific marker, CD41 or CD61 was analyzed.
The CD34+ hematopoietic stem cells cocultured with OP9 cells through Example 1 were treated with each of the hematopoietic stem cell differentiation inducers at a following concentration; CC200 (rhTPO 50 ng/ml, rhSCF 50 ng/ml, IL-3 10 ng/ml), Megacult-C (TPO 5 ng/ml), and (R)-NALPCE 35 ug/ml in culture media.
After 8 days, the culture media were centrifuged (1,000 rpm, 10 min), and the cell pellets thus obtained were washed three times with PBS. The cells were incubated with 20 μl of Fluorescein isothiocyanate (FITC)-conjugated mouse anti-human monoclonal CD41 antibody (DAKOCycomation, Denmark) or 20 μl of Fluorescein isothiocyanate(FITC)-conjugated mouse anti-human monoclonal CD61 antibody (DAKOCycomation, Denmark) in 200 μl of 0.01% bovine serum albumin (BSA)-PBS at 37° C. for 30 min while spinning to realize homogeneous fluorescent staining. After centrifugation (1,000 rpm, 10 min), the cell pellets thus obtained were washed three times with 0.01% bovine serum albumin (BSA) in PBS. Fluorescence was analyzed on a fluorescence-activated cell sorter (FACS Aria) using a Cellquest program. Results are means±SD (n=3). […]

[3] = test system: K562 cells; assay: Oligonucleotide array (genechip) of gene expression during megakaryocytic differentiation; details: K562 cells treated with 50 μg/ml vs undifferentiated cells
Protocol: (§2) The OP9 stromal cell line was aliquoted into 6-well culture plate at a density of 1×10^5/well, and cultured for 24 hrs as a monolayer in a-MEM supplemented with 20% heat-inactivated FBS, 0.5% penicillin/streptomycin and 1.5 g/L sodium bicarbonate. When the OP9 stromal cell line was cultured as a monolayer, the K562 cells were aliquoted upper the OP9 cells at a density of 1×10^5/well, and cocultured with the OP9 cells. These K562 cells were treated with (R)-NALPLE (see Korean Patent No. 10-0688261) at a concentration of 50 μg/ml to induce megakaryocytic differentiation.
mRNAs were extracted from normal K562 cells and compound-treated K562 cells by the method of Example 5. To understand the genetic events during megakaryocytic development, the K562 cells were incubated for 6, 12, 24, 48, 72, 96, and 120 hr with the compound, and mRNAs were extracted from each cell using an RNeasy mini kit (Qiagen, USA). A genechip analysis was performed using 1 μg of RNA and an oligonucleotide array from Macrogen.
From analyzed data, total 67 genes, of which expression levels were increased more than 5-fold in differentiated K562 cells, were assigned. The functional categories included transcription factor, receptor, miscellaneous function, select calcium binding protein, phosphatase, signaling molecule, select regulatory factor, protease, nucleic acid binding, cytoskeleton protein, kinase, cell adhesion molecule, transferase, synthase, hydrolase defense/immunity and molecular function unclassified. Among these genes, selected were 4 genes of which expression levels were increased more 10 fold in differentiated cells, such as KLF2 (Kiruppel-like factor2), LOC138255 (OTTHUMP00000021439), GDF15 (growth differentiation factor 15) and INHBE (inhibin, betaE).

[4] = test system: K562 cells; assay: Polyploidization (FACS) and morphology of shRNA-transfected K562 cells cocultured on OP9 in (R)-NALPCE; details: 50 μg/mL for 4 days, cocultured on OP9, FIG. 4
Protocol: To confirm whether the selected genes regulate the differentiation into megakaryocyte and platelets, shRNAs capable of inhibiting expressions of the KLF2, LOC138255, GDF15, and INHBE genes were constructed, and K562 cells were transfected with shRNAs.
The transfected K562 cells were sorted by FACS Aria flow cytometer, and cocultured upper OP9 stromal cells in 50 μg/mL of (R)-NALPCE for 4 days. Then, the cells were analyzed with a fluorescence-activated cell sorter using Cell quest, and photographed by Mag. ×200. Results are means±SD (n=3). Similar results were obtained in three independent experiments (FIG. 4).

[5] = test system: K562 cells; assay: RT-PCR of KLF2, LOC138255, GDF15 and INHBE mRNA during megakaryocytic development; details: 50 μg/ml, incubated 6, 12, 24, 48, 72, 96 and 120 hr, FIG. 3
Protocol: as §2
To analyze the expression patterns of the selected 4 genes, KLF2, LOC138255, GDF15, and INHBE during megakaryocytic development, RT-PCR was performed to measure the mRNA level in cells.
In order to specifically analyze their expression patterns during megakaryocytic development, the K562 cells were incubated for 6, 12, 24, 48, 72, 96, and 120 hr with the compound ((R)-NALPLE 50 μg/ml). Total cellular RNA was extracted from the K562 cells using an RNeasy mini kit following the manufacturer's instructions using M-MLV Reverse Transcriptase (Promega, Madison, Wis.), and RT-PCR was performed.
Amplification conditions were followed by 20 cycles (for GAPDH) or 25 cycles (for KLF2, LOC138255, GDF15, and INHBE) at 95° C. for 30 seconds, 60° C. for 60 seconds, and 72° C. for 90 seconds. The primers used were the following: • KLF2 forward primer (SEQ ID NO.1): 5′-[…]-3′ • reverse primer (SEQ ID NO.2);5′-CATGTGCCGTTTCATGTGC-3′ • LOC138255 forward primer )SEQ ID NO.3); 5′-[…]-3′ • reverse primer )SEQ ID NO. 4);5′-[…]-3′ • GDF15 forward primer 9SEQ ID NO. 5); 5′-[…]-3′ • reverse primer (SEQ ID NO. 6): 5′-[…]-3′ • INHBE forward primer (SEQ ID NO. 7); 5′-[…]-3′ • reversre primer (SEQ ID NO. 8);5′[…]-3′ • GARDH forward primer (SEQ ID NO. 9);5′-[…]-3′ • reverse primer (SEQ ID NO. 10);5′-[…]-3′
After PCR reaction, each reaction mixture was analyzed by 1% agarose gel electrophoresis, and the bands were visualized by ethidium bromide staining (FIG. 3).

| Molecule | morphological change (morphological feature of megakaryocytes) ([1]; 45 μg/ml, after 8 days, cocultured with OP9 cells, photographed Mag. x200, FIG. 1) | polyploidization (FACS, propidium iodide) ([1]; 45 μg/ml, cocultured with OP9 cells, FIG. 1) | megakaryocytic differentiation together with CC200, compared to each single treatment ([1]; addition of compound to CC200 (rhTPO 50 ng/ml, rhSCF 50 ng/ml, IL-3 10 ng/ml)) | megakaryocytic differentiation together with Megacult-C, compared to each single treatment ([1]; addition of compound to Megacult-C (TPO 5 ng/ml, IL-3 1 ng/ml, IL-6 2 ng/ml)) | expression level of CD41 or CD61, CC200 together with the compound vs single treatment of CC200 ([2]; 35 ug/ml plus CC200, after 8 days) | expression level of CD41 or CD61, megacult-C together with the compound vs single treatment of megacult-C ([2]; 35 ug/ml plus Megacult-C (TPO 5 ng/ml), after 8 days) | expression level of megakaryocyte-specific marker CD41 or CD61, compared with cells treated with CC200 or megacult-C ([2]; single treatment 35 ug/ml, after 8 days) | GDF15 expression increase in differentiated cells (oligonucleotide array) [3] [fold] | INHBE expression increase in differentiated cells (oligonucleotide array) [3] [fold] | KLF2 expression increase in differentiated cells (oligonucleotide array) [3] [fold] | LOC138255 expression increase in differentiated cells (oligonucleotide array) [3] [fold] | polyploidization of non-transfected K562 cells [4] | GDF15 gene expression pattern (RT-PCR) [5] | INHBE gene expression pattern (RT-PCR) [5] | KLF2 gene expression pattern (RT-PCR) [5] | LOC138255 gene expression pattern (RT-PCR) [5] |
| --- | --- | --- | --- | --- | --- | --- | --- | --- | --- | --- | --- | --- | --- | --- | --- | --- |
| CCCCCCCCCCCCCCCCCC(=O)N[C@H](COP(=O)([O-])OCC[N+](C)(C)C)C(=O)OC [compound of Formula 1, N-steroyl-O-phosphocholine-D-serine methyl ester] | increase in cytoplasmic mass and cell size | high nucleus number due to polyploidization through endomitosis | more induced megakaryocytic differentiation | more induced megakaryocytic differentiation | higher | higher | higher | > 10 | > 10 | > 10 | > 10 | high nucleus number due to polyploidization through the endomitosis | – | – | – | – |
| N-steroyl-O-phosphocholine-D-serine methyl ester [compound of Formula 1] | – | – | – | – | – | – | – | – | – | – | – | – | markedly expressed at 12 to 96 hr | markedly expressed at 12 to 96 hr | markedly expressed at 12 to 96 hr | markedly expressed at 12 to 96 hr |
